Measurements from US4320057A, “Aryl--pyrrolo--thiazepin--diones and aryl--piperidino--thiazepin--diones” (American Home Products Corporation, priority 1981, dated 1982).

Biological target: T1, angiotensin converting enzyme (Oryctolagus cuniculus, UniProt P12822)
T1 construct: A crude angiotensin converting enzyme supernatant is obtained by blending 1 gm. of rabbit lung acetone powder; tissue PelFreez Biologicals; host or cells: rabbit lung acetone powder, crude 40,000 xg supernatant
T1 sequence (P12822 34-1310): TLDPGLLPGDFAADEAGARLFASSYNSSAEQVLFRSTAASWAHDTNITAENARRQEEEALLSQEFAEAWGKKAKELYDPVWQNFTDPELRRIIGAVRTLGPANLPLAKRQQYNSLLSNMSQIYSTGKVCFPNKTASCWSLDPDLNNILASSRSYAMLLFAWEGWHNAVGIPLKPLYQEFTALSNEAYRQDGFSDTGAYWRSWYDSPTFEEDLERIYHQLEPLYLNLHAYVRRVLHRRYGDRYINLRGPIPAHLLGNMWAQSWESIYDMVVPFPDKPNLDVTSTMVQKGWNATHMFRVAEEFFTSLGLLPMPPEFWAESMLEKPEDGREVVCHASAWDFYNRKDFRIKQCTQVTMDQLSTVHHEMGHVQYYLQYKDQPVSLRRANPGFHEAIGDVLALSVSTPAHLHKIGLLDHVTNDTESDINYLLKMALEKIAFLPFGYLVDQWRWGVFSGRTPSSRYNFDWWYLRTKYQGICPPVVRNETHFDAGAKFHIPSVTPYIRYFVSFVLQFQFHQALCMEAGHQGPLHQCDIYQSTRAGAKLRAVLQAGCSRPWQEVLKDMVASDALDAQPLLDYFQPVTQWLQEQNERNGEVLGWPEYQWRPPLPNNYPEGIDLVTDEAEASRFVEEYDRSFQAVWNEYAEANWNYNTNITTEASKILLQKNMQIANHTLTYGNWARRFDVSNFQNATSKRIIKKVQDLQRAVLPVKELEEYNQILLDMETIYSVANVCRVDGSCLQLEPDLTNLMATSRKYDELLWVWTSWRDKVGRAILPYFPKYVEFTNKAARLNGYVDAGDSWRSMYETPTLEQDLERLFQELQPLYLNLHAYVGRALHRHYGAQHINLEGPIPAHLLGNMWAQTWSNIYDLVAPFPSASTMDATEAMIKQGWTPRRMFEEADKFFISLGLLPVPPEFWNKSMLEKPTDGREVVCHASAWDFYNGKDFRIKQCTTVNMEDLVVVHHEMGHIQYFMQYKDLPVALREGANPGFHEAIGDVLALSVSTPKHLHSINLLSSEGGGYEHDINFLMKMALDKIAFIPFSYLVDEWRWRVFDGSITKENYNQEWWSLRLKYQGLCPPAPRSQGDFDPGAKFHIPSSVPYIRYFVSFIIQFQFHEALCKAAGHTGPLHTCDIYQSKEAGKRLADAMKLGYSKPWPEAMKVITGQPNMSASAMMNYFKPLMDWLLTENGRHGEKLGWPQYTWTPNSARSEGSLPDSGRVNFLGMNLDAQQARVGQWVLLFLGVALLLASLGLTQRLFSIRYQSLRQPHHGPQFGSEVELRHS
Assay: incubation of hippuryl-L-histidyl-L-leucine with angiotensin converting enzyme (HHL hydrolysis)
Type: biochemical, rabbit
Conditions: 100 ng/ml; read-out: inhibition of angiotensin converting enzyme in vitro
Method: The activity of the compounds of this invention was established by incubation of hippuryl-L-histidyl-L-leucine at 37° C. with angiotensin converting enzyme by the following procedure:
A crude angiotensin converting enzyme supernatant is obtained by blending 1 gm. of rabbit lung acetone powder (PelFreez Biologicals) with 35 ml of 50 mM (buffered) potassium phosphate, pH 8.3 and centrifuging for 45 min. at 40,000 xg.
The specific angiotensin converting enzyme substrate Hippuryl-L-histidyl-L-leucine (HHL-Sigma Chem. Co.) is prepared at 5 mM in 200 mM potassium phosphate buffer containing 757 mM NaCl at pH 8.3.
Incubation for the assay of HHL hydrolysis by angiotensin converting enzyme is carried out in a 37° C. gyrorotary incubator in disposable 13×100 mm tubes. Each 0.25 ml assay mixture contains the following components at the final concentrations: potassium phosphate buffer, 100 mM; NaCl, 300 mM; HHL, 5 mM; and enzyme 0.15 ml (10 mU approx.) added last to initiate the reaction. Zero time controls have 0.25 ml of 2N HCl added before the enzyme. The timed reactions are terminated with acid at 30 min. similarly and the hippuric acid freed from substrate is extracted into 1.5 ml of ethylacetate by vortex mixing for 15 sec. […]
The hippuric acid is resuspended in 1.0 ml of water, the absorbance at 228 nm is determined, and the amount present is calculated from a standard curve. […]

Structure (SMILES): CC(CSC(=O)c1ccccc1)C(=O)N1C(C(=O)O)CCC1c1ccccc1 (stereo not drawn) [α-acid of Example 7, α-and β-5-Phenyl-1-(3-benzoylthio-2-methyl-1-oxopropyl)proline]
- inhibition at 0.1 µg/mL: 5%
